Test results as given in US20100048727A1, “PERFLUOROKETONE COMPOUNDS AND USES THEREOF” (priority 2007, published 2010).
“Also recorded” adds a separate entry of the source.

How the values were obtained:
[1] = molecular target: T1, human GIVA cPLA2 (Homo sapiens, UniProt P47712); experiment: GIVA cPLA2 specific mixed micelle assay; format: biochemical; conditions: 0.091 mole fraction
T1 sequence (P47712 1-749): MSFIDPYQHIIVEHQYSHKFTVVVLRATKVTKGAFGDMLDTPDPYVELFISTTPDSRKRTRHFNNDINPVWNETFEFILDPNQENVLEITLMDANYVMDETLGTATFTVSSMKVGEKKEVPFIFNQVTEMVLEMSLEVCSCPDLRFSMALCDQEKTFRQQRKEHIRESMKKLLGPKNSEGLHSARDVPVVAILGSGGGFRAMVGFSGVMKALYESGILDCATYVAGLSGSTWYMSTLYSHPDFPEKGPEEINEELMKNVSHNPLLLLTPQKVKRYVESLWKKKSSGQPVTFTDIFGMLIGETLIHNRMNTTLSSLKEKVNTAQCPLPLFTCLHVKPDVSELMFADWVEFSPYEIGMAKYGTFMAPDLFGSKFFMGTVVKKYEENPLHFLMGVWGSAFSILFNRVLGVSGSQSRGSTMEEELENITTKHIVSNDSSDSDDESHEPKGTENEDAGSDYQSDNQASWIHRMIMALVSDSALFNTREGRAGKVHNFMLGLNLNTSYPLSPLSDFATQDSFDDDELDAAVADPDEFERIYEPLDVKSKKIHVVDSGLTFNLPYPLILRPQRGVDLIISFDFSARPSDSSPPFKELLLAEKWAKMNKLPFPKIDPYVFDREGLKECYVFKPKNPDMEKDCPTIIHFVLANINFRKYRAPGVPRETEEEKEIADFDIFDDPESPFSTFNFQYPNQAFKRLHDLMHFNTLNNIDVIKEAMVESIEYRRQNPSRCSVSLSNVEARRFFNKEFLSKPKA
Method: Inhibition of phospholipase A2 by perfluoroketone compounds. […] (2002) J. Med. Chem. 45: 2891-2893; Kokotos, G. et al. (2004). J. Med. Chem. 47: 3615-3628). The standard GVIA iPLA2 activity assay utilizes DPPC/Triton™ X-100 mixed micelles at a ratio of 1:4 as previously described (Stephens D. et al. (2006). J. Med. Chem., 49: 2821-2828). GV sPLA2 activity was measured in an assay similar to the assays for GIVA cPLA2 and GVIA iPLA2.

[2] = test system: EAE-induced SJL/J mice; experiment: Clinical course of EAE in SJL/J mice treated with fluoroketone compounds; format: in vivo
[3] = test system: spinal cord contusion injury (SCI) mice; experiment: Spinal cord contusion injury in mice: BMS locomotor recovery and histology; format: in vivo
Method: Spinal cord contusion and drug administration. All surgical procedures were approved by the McGill University Animal Care Committee and followed the guidelines of the Canadian Council on Animal Care. Adult (8-10 weeks old) female BALB/c (Charles River Canada), cPLA2 IVA^−/− and wild type littermates mice, were anesthetized with ketamine:xylazine:acepromazine (50:5:1 mg/kg). After performing a laminectomy at the 11th thoracic vertebrae, the exposed spinal cord was contused using the Infinite Horizons Impactor™ device (Precision Scientific Instrumentation, Lexington, Ky.). Moderate injuries were made using a force of 50 kDynes, and only animals that had tissue displacement ranged between 400-600 μm were used (Ghasemblou et al. (2005). Exp Neurol. 196(1): 9-17).
PLA2 inhibitor treatment. Mice were given daily intraperitoneal injections of 2 mM fluoroketone (iPLA2 inhibitor; FKGK11) in 200 μl (6.85 mg/kg), starting 1 h after contusion and for 14 days. The control group that also had SCI were treated daily with vehicle.
Functional assessment. Locomotor recovery was evaluated in an open-field test using the Basso Mouse Scale (BMS) (Basso D. M. et al., (2006). J Neurotrauma. 23(5): 635-59). The BMS analysis of hindlimb movements and coordination was carried out by two independent assessors and the consensus score taken. The final score is presented as mean±SEM.
Histology. Mice were perfused with 4% paraformaldehyde in 0.1M phosphate buffer (PB) at 1, 3, 7, 14 and 28 days post-lesion. 5 mm length of the spinal cord containing the lesion site was removed, cryoprotected with 30% sucrose in 0.1M PB, and cut in serial sections (16 μm thick). For double immunoflorescence, sections were incubated with antibodies against iPLA2 VIA (Cayman Chemical) combined with antibodies against Mac-1 (for macrophages/microglia, Serotec), GFAP (for astrocytes, Zymed Labs), CC1 (for oligodendrocytes, Calbiochem), NeuN (for neurons, 1:500, Chemicon) and SMI312 (for axons, Covance). Immunfluorescence labeling for 5-hydroxytryptamine (5-HT) (Sigma, Aldreich) was also performed to assess innervation of serotonergic axons caudal to the lesion. In addition, one series of serial sections of the spinal cord were stained with Luxol fast blue (LFB) histochemistry, which stains myelin, and another series stained with cresyl violet histochemistry to quantify neuronal loss.
Quantification of histological results. Histological quantification was performed from spinal cord sections harvested at 28 days post-lesion. Tissue sections were viewed with an Axioskop™ 2 Plus microscope (Zeiss) and images captured using a Qlmaging Retiga™ 1300 camera, and quantification done using BioQuant™ Nova Prime image analysis system (BioQuant Image Analysis Corp.). Tissue and myelin sparing was calculated by delineating the GFAP and LFB stained sections. Neuronal survival was assessed by counting the neuron profiles in the ventral horn of the spinal cord in tissue sections stained with cresyl violet. Assessment of serotonergic innervation was performed by calculating the area occupied by serotoninergic axons in the lateral funiculi and ventral horns of spinal cord sections taken at a distance of 1000 μm caudal to the lesion site.
Statistical analyses (spinal cord injury experiments, Examples 19-20). Data are shown as mean±s.e.m. RT-PCR and Western blot analyses were done using one-way ANOVA with post-hoc Dunnett's test. Statistical analyses of the functional and histological assessments were performed using two-way repeated measures ANOVA with post-hoc Tukey's test for multiple comparisons. Differences were considered significant at p<0.05.

## O=C(CCCCc1ccccc1)C(F)(F)C(F)(F)F [FKGK11, 1,1,1,2,2-Pentafluoro-7-phenyl-3-heptanone]
[1]
  Average percent inhibition GIVA cPLA2 (class symbol): N.D. (N.D. means compounds with less than 25% inhibition (or no detectable inhibition))
[2]; delayed treatment from day 11, 5-point scale
  clinical disability score between days 22-27: 0.8
[2]; delayed treatment from day 11, on day 17, 5-point scale
  maximal clinical disability score: 1.4
[2]; delayed treatment from day 11, on day 30, 5-point scale
  clinical disability score at second peak: 1.2
[2]; delayed treatment from day 11 after immunization, 2 weeks, i.p., vs vehicle
  severity and progression of the disease (EAE): marked reduction
[2]; treatment before onset of symptoms, daily for 3 weeks from day 6, course until day 40, 5-point scale
  maximum clinical disability score: 1.0 grade
[2]; treatment before onset of symptoms, daily for 3 weeks from day 6, vs vehicle
  clinical severity and progression of EAE: marked reduction
[3]; 6.85 mg/kg i.p. daily for 14 days from 1 h after contusion, vs vehicle
  main BMS scores (locomotor recovery): did not reach statistical significance; also recorded: No significant differences
[3]; 6.85 mg/kg i.p. daily for 14 days, 28 days after SCI, vs vehicle
  BMS subscores (fine locomotor coordination and control): significant improvement; also recorded: significantly better BMS subscores
[3]; 1000 μm caudal to the epicenter, 28 days after SCI
  sparing of serotonergic fibers in the lateral funiculi: significantly greater sparing of serotonergic fibers
[3]; 1000 μm caudal to the epicenter, 28 days after SCI, compared to vehicle-treated SCI controls
  increase in serotonergic (5-HT) fibers in the lateral white matter: ~40%
[3]; 28 days after SCI, vs vehicle
  neuronal survival in the ventral horn: little if any effect; also recorded: No significant differences
[3]; epicenter and adjacent areas, 28 days after SCI, vs vehicle
  tissue sparing: significantly greater tissue sparing; also recorded: greater amount of tissue sparing
[3]; regions near the epicenter, 28 days after SCI, vs vehicle
  myelin sparing (Luxol fast blue): significant enhancement of myelin sparing; also recorded: greater sparing of myelin
